# Test results from patent US3989687A, “4-Oxo-1-pyridinyl penicillin derivatives” (Richardson-Merrell Inc., priority 1975, dated 1976).
# Counter-ions that a name gives are not always drawn. Like-named read-outs stand apart in the source and are kept apart here.
# What was measured:
# [1] = acid resistance; assay type: physicochemical
# [2] = test system: Staphylococcus aureus; assay: in vitro agar plate filter paper disc test, zones of inhibition: Staphylococcus aureus; assay type: cell-based; conditions: read-out: Minimal inhibiting concentration, Staphylococcus aureus
# Experimental: (§1) Specific nutrient agar plates are completely innoculated with the various test organisms. Filter paper discs are placed on the surface of the agar and wetted with 0.1 ml. of a solution containing 10, 100 and 1,000 micrograms of the test compound. Zones of inhibition of microbial growth are used to indicate the antibacterial activity of the test compound against the various test organisms employed.
# (§2) The following table summarizes the in vitro activity of the following representative compounds: 6-[2-(4-oxo-1-pyridinyl)acetylamino]penicillanicacid, sodium salt (1), 7-[2-(4-oxo-1-pyridinyl)acetylamino]desacetoxycephalosporanic acid (2), 6-[2-(3,5-diiodo-4-oxo-1-pyridinyl)acetylamino]penicillanic acid, sodium salt (3), 7-[2-(2,6-dimethyl-4-oxo-1-pyridinyl)acetylamino]desacetoxycephalosporanicacid, sodium salt (4), 7-[2-(4-oxo-1-pyridinyl)acetylamino]cephalosporanicacid, sodium salt (5) and 6-[2-(4-oxo-1-quinolinyl)acetylamino]penicillanic acid, sodium salt (6).
# [3] = test system: (Penicillinase Producing) Staphylococcus aureus; assay: in vitro agar plate filter paper disc test, zones of inhibition: penicillinase producing Staphylococcus aureus; assay type: cell-based; conditions: read-out: Minimal inhibiting concentration, (Penicillinase Producing) Staphylococcus aureus
# Experimental: as §1, §2
# [4] = test system: Streptococcus pyogenes; assay: in vitro agar plate filter paper disc test, zones of inhibition: Streptococcus pyogenes; assay type: cell-based; conditions: read-out: Minimal inhibiting concentration, Streptococcus pyogenes
# Experimental: as §1, §2
# [5] = test system: Salmonella schottmuelleri; assay: in vitro agar plate filter paper disc test, zones of inhibition: Salmonella schottmuelleri; assay type: cell-based; conditions: read-out: Minimal inhibiting concentration, Salmonella schottmuelleri
# Experimental: as §1, §2
# [6] = in vitro, 0.1 ml. of a solution containing 10, 100 and 1,000 micrograms on filter paper discs
# [7] = in vitro, penicillinase producing strain, 0.1 ml. of a solution containing 10, 100 and 1,000 micrograms on filter paper discs
Compound,Acid Resistance [1],MIC [2] [µg/mL],MIC [3] [µg/mL],MIC [4] [µg/mL],MIC [5] [µg/mL],"MIC [2, 6] [µg/mL]","MIC [3, 7] [µg/mL]","MIC [4, 6] [µg/mL]","MIC [5, 6] [µg/mL]"
"CC1(C)S[C@@H]2C(NC(=O)Cn3ccc(=O)c4ccccc43)C(=O)N2[C@H]1C(=O)[O-].[Na+] (stereo partly drawn) [(6), 6-[2-(4-oxo-1-quinolinyl)acetylamino]penicillanic acid, sodium salt]",Yes,10,1000,1000,100,,,,
"CC(=O)OCC1=C(C(=O)O)N2C(=O)C(NC(=O)Cn3ccc(=O)cc3)C2SC1 (stereo not drawn) [(5), 7-[2-(4-oxo-1-pyridinyl)acetylamino]cephalosporanicacid, sodium salt]",Yes,,,,,10,1000,100,100
"CC1=C(C(=O)O)N2C(=O)C(NC(=O)Cn3c(C)cc(=O)cc3C)C2SC1 (stereo not drawn) [(4), 7-[2-(2,6-dimethyl-4-oxo-1-pyridinyl)acetylamino]desacetoxycephalosporanicacid, sodium salt]",Yes,,,,,1000,> 1000,> 1000,> 1000
"CC1=C(C(=O)O)N2C(=O)C(NC(=O)Cn3ccc(=O)cc3)C2SC1 (stereo not drawn) [(2), 7-[2-(4-oxo-1-pyridinyl)acetylamino]desacetoxycephalosporanic acid]",Yes,,,,,1000,> 1000,1000,> 1000
"CC1(C)S[C@@H]2C(NC(=O)Cn3cc(I)c(=O)c(I)c3)C(=O)N2[C@H]1C(=O)[O-].[Na+] (stereo partly drawn) [(3), 6-[2-(3,5-diiodo-4-oxo-1-pyridinyl)acetylamino]penicillanic acid, sodium salt]",Yes,10,> 1000,> 1000,100,,,,
"CC1(C)S[C@@H]2C(NC(=O)Cn3ccc(=O)cc3)C(=O)N2[C@H]1C(=O)[O-].[Na+] (stereo partly drawn) [(1), 6-[2-(4-oxo-1-pyridinyl)acetylamino]penicillanicacid, sodium salt]",Yes,10,1000,1000,100,,,,
